The test system of experiment [1] is G4 Tel (DNA, G4) AGGGTTAGGGTTAGGGTTAGGG
Put plainly: CD melting. To be noted: K+ (concentration not restated for melting); 8 equiv. ligand; 16 μM.

For experiment [2], the system named is MYC (DNA, G4) TGAGGGTGGGTAGGGTGGGTAA
Put plainly: CD melting. To be noted: K+ (concentration not restated for melting); 8 equiv. ligand; 16 μM.

The test system is the same in experiment [3]. Put plainly: Hoechst 33258 fluorescent displacement. To be noted: Hoechst 33258 displaced, quenching nearly 35%; tracking lost at higher ligand.
In experiment [4] the test system is G4 Tel (DNA, G4) AGGGTTAGGGTTAGGGTTAGGG
Put plainly: fluorescence titration, ligand emission, Hill fit. The settings on record: apparent, ligand 10 μM.

For experiment [5], the system named is MYC (DNA, G4) TGAGGGTGGGTAGGGTGGGTAA
Put plainly: fluorescence titration, ligand emission, Hill fit. The settings on record: K+ 100 mM, apparent, PBS 20 mM phosphate, pH 6.8, room temperature, ligand 10 μM.

Experiment [6] has as its system KRAS (DNA, G4) AGGGCGGTGTGGGAAGAGGGAAGAGGGGGAGG
The experiment can be described thus: fluorescence titration, ligand emission, Hill fit. To be noted: K+ 100 mM, apparent, PBS 20 mM phosphate, pH 6.8, room temperature, ligand 10 μM.

Experiment [7] relates to ds26 (DNA, duplex) CAATCGGATCGAATTCGATCCGATTG
The experiment can be described thus: fluorescence titration, ligand emission, Hill fit. The settings on record: K+ 100 mM, apparent, PBS 20 mM phosphate, pH 6.8, room temperature, ligand 10 μM.

Experimental findings from publication PMC12004264 (2025) are described below.

The structures appear in SMILES notation.

A word on the ΔTm: it is the shift of the melting midpoint relative to a reference.

In the case of `COc1ccc(-c2cc3c(cc2-c2cc[n+](C)cc2)c(=O)c2ccccc2n3C)cc1`, the ΔTm was determined as 0.9 °C in experiment [1] and 10.7 °C in experiment [2]. The binding result in experiment [3] is recorded as “yes”. The KD in experiment [4] (K+ 100 mM, PBS 20 mM phosphate, pH 6.8, room temperature, Hill n 0.98) is 3.30 ± 0.11 µM; in experiment [4] (Na+ (Tris-NaCl), Tris-NaCl buffer, room temperature, Hill n 0.80, buffer alone quenches 31%), 2.08 ± 0.07 µM; in experiment [5] (Hill n 1.33), 1.86 ± 0.04 µM; in experiment [6] (Hill n 0.97), 9.62 ± 0.70 µM; in experiment [7] (Hill n 0.98), 14.95 ± 1.00 µM.
Take `COc1ccc(-c2cc3c(cc2-c2ccncc2)c(=O)c2ccccc2n3C)cc1`: the results for the ΔTm in experiment [1] and in experiment [2] were 1.7 °C and 6.2 °C, respectively. The KD came out at 2.58 ± 0.03 µM in experiment [4] (K+ 100 mM, PBS 20 mM phosphate, pH 6.8, room temperature, Hill n 7.83); 3.45 ± 0.05 µM in experiment [4] (Na+ (Tris-NaCl), Tris-NaCl buffer, room temperature, Hill n 4.66, buffer alone quenches 44%); 10.85 ± 0.30 µM in experiment [5] (Hill n 4.68); 5.51 ± 0.079 µM in experiment [6] (Hill n 8.07); 3.73 ± 0.02 µM in experiment [7] (Hill n 15.27).
